Data published in US20240369485A1, “FLUORESCENT SENSOR FOR MONITORING CALCIUM DYNAMICS” (priority 2021, published 2024).
Numbering of substitutions follows the chain as printed. Numbers in names are those of the source. Entries after “also recorded” stand apart in the source; their conditions may differ. Values belong to the molecule of their own block, whether it stands above or below them.

Legend:
CaSR (wildtype) = biological target: T1, CaSR (wildtype) (Homo sapiens, UniProt P41180); assay: Epifluorescence imaging of CaSR mediated ER Ca^2+ dynamics using R-CatchER and Fura-2 in HEK293 cells; type: cell-based; conditions: for effect on cytosolic and ER Ca^2+ oscillations: Tg 3 μM, 2-APB 100 μM, ionomycin 20 μM with 10 mM Ca^2+; for effect on frequency of ER Ca^2+ oscillations: in the presence of Ca^2+, HEK293 CaSR
T1 construct: expressed in transfected cells; host or cells: HEK293
T1 sequence (P41180 20-1078): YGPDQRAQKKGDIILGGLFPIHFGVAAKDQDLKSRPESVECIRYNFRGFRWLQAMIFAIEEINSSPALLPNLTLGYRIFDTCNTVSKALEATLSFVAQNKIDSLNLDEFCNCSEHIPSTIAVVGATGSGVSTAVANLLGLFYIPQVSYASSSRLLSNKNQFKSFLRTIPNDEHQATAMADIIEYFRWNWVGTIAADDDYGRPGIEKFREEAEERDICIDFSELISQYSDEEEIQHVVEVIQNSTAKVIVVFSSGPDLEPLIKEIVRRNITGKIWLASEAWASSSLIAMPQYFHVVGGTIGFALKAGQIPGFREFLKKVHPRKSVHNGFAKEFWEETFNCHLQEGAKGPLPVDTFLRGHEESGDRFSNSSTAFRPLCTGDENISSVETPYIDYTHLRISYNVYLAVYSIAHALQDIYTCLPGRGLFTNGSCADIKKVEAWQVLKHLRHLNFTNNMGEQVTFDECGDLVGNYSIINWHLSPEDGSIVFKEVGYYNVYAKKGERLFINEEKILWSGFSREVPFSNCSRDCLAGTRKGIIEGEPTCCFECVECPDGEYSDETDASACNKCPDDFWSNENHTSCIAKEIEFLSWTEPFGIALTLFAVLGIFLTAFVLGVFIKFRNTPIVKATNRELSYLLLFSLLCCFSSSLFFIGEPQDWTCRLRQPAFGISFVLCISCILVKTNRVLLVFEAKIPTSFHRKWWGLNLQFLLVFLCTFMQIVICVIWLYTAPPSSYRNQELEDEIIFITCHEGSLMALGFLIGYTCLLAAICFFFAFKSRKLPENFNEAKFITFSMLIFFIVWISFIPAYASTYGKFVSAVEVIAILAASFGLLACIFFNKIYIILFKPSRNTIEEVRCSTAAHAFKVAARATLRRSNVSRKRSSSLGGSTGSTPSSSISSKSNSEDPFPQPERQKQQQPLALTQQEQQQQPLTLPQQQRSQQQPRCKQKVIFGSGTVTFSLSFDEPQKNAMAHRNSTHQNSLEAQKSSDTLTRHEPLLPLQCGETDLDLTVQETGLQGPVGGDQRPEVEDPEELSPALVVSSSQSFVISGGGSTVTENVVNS
Procedure: (§1) Cell culture and transfection. C2C12, HEK293 and HeLa cells were cultured and maintained in Dulbecco's modified Eagle's medium (DMEM) supplemented with 10% fetal bovine serum (FBS) and high glucose (4.5 g/L) at 37° C. R-CatchER, G-CatchER2, G-CEPIA1er, R-CEPIA1er or R-CatchER with GFP-CaSR (wt and mutations) were transfected into cells using Lipofectamine 3000 (Life Technologies), following the manufacturer's instructions. Seed cells onto sterilized 22 mm×40 mm glass microscope slides in 6 cm dishes until about 70% confluency, the day of transfection. The next day, 2 μg of plasmid were mixed with transfection reagent in the reduced serum media Opti-MEM for 4-6 h at 37° C. The media was then replaced with 3 mL of fresh DMEM and incubated at 37° C. for 48 h.
Epifluorescence imaging of class C GPCR mediated ER Ca^2+ dynamics using R-CatchER and Fura-2. HEK293 Cells transfected with R-CatchER and GFP-CaSR (wt and mutations) were incubated with Fura-2 for 30 mins at 37° C. then washed with 2 mL of physiological Ringer buffer (10 mM HEPES, 140 mM NaCl, 5 mM KCl, 1.2 mM MgCl2, 1.8 mM CaCl2) at pH 7.4). The coverslips were mounted on a bath chamber and placed on the stage of a Leica DM6100B inverted microscope with a Hamamatsu cooled EM-CCD camera and illuminated with a Till Polychrome V Xenon lamp. Cells were illuminated at 340 nm, 380 nm and 569 nm, in real-time, as cells were exposed to different concentrations of Ca^2+, cinacalcet, Phe, TNCA, or NPS2143.

CaSR E297K = biological target: T2, CaSR E297K (Homo sapiens, UniProt P41180, E297K); assay: Epifluorescence imaging of CaSR mediated ER Ca^2+ dynamics using R-CatchER, E297K mutant; type: cell-based; conditions: E297K mutant with TNCA (500 μM)
T2 construct: expressed in transfected cells; host or cells: HEK293
T2 sequence (P41180 20-1078 E297K): T1 sequence (P41180 20-1078) with E278K
Procedure: as §1
Epifluorescence imaging of class C GPCR mediated ER Ca^2+ dynamics using R-CatchER and Fura-2. HEK293 Cells transfected with R-CatchER and GFP-CaSR (wt and mutations) were incubated with Fura-2 for 30 mins at 37° C. then washed with 2 mL of physiological Ringer buffer (10 mM HEPES, 140 mM NaCl, 5 mM KCl, 1.2 mM MgCl2, 1.8 mM CaCl2) at pH 7.4). The coverslips were mounted on a bath chamber and placed on the stage of a Leica DM6100B inverted microscope with a Hamamatsu cooled EM-CCD camera and illuminated with a Till Polychrome V Xenon lamp. […]

[1] = Calcium (Ca^2+) binding assay: fluorescence/absorbance titration of purified protein; conditions: mCherry based indicators, Ca^2+ induced fluorescence change
Procedure: Calcium (Ca^2+) binding assay. 10 μM protein samples of mApple, EGFP, and mCherry variants were titrated with different concentrations of Ca^2+. Data were fitted with a 1:1 binding equation. Fluorescence intensities were collected using a Spectrofluorimeter (Photon Technology International, Inc.) and the absorbance values of Ca^2+-free and Ca^2+-loaded forms were determined using a Shimadzu UV-1601 spectrophotome.
Ca^2+ binding assay. Fluorescence measurements of mApple variants with increasing Ca^2+ concentrations were done in order to obtain the affinity of the sensor for Ca^2+ in vitro. Samples of 10 μM mApple variants with 5 μM EGTA were prepared in triplicate in 1 mL volumes in 10 mM Tris, pH 7.4. The samples were placed in quartz fluorescence cuvettes, and metal ion was titrated into each sample, in a stepwise manner, using 0.1 M and 1 M metal stock solutions. The fluorescence response of the indicator to increasing Ca^2+ concentrations was monitored using a fluorescence spectrophotometer (Photon Technology International, Canada) with the Felix32 fluorescence analysis software. The absorbance spectra before and after titration were obtained using a Shimadzu UV-1601 spectrophotometer.

[2] = pKa determination of the chromophore; type: physicochemical
Procedure: pKa determination. To measure the chromophore pKa of mApple, EGFP, and mCherry variants, the proteins were prepared in buffers (sodium acetate buffer for pH 3-5, MES buffer for pH 5-6, HEPES buffer for pH 6.5-8, TRIS buffer for pH 8.5-9) covering a pH range from 3 to 10. All samples were Incubated at 4° C. overnight, then the following day, the absorbance and fluorescence spectra were collected using a Shimadzu UV-1601 spectrophotometer and the Spectrofluorimeter.

[3] = In vitro kinetics by stopped flow spectrofluorometer; type: binding; conditions: stopped-flow, dead time 2.2 ms, 20° C.
Procedure: In vitro kinetics by stopped flow spectrofluorometer. The kinetics were determined by a Hi-Tech SF-61 stopped-flow spectrofluorometer equipped with the mercury-Xe lamp (10 mm path length, dead time of 2.2 ms) at 20° C. For R-CatchER and its variant or R-CEPIA1er, excitation was at 569 nm and a long-pass 590 nm filter was used. For G-CEPIA1er, a 530 nm long-pass filter was set with excitation at 498 nm, while for MCD1, excitation at 587 nm and a long-pass 600 nm filter were applied. For association kinetics, R-CatchER, R-CatchER variant, MCD1, R-CEPIA1er, and G-CEPIA1er were mixed with the same buffer containing an increasing concentration of Ca^2+. For disassociation kinetics, R-CatchER, R-CatchER variant, MCD1, R-CEPIA1er, and G-CEPIA1er in buffers with concentration of Ca^2+ at Kd, were mixed with 5 mM EGTA or buffer. The raw data were fitted using either single exponential for R-CatchER, R-CatchER variant, and MCD1, or double exponential equations for R-CEPIA1er and G-CEPIA1er.

Molecule: C/C=C(/C)C(=O)O[C@H]1C(C)=C2[C@H]([C@@H]1OC(=O)CCCCCCC)[C@@](C)(OC(C)=O)C[C@H](OC(=O)CCC)[C@@]1(O)[C@H]2OC(=O)[C@@]1(C)O [Tg, Thapsigargin]
effect on cytosolic and ER Ca^2+ oscillations (CaSR (wildtype)): eliminated; also recorded: elimination

Molecule: CC(C)(Cc1ccc2ccccc2c1)NC[C@@H](O)COc1cccc(Cl)c1C#N [NPS2143]
effect on frequency of ER Ca^2+ oscillations (CaSR (wildtype); R-CatchER): decreased the frequency

Molecule: C[C@H](CCC(=O)O)C[C@H](C)C[C@H](C)C(=O)/C=C(\O)[C@H](C)C[C@H](C)C/C=C/[C@@H](C)[C@@H](O)[C@@H](C)[C@@H](O)C[C@@H]1CC[C@@](C)([C@H]2CC[C@@](C)([C@@H](C)O)O2)O1 [ionomycin]
effect on cytosolic and ER Ca^2+ oscillations (CaSR (wildtype)): eliminated; also recorded: abolished

Further lines, with some results ahead:

effect on cytosolic and ER Ca^2+ oscillations (CaSR (wildtype)): eliminated; also recorded: elimination
Molecule: NCCOB(c1ccccc1)c1ccccc1 [2-APB, 2-Aminoethoxydiphenyl borate]

effect on frequency of ER Ca^2+ oscillations (CaSR (wildtype); R-CatchER): increased the frequency
Molecule: C[C@@H](NCCCc1cccc(C(F)(F)F)c1)c1cccc2ccccc12 [Cinacalcet]

effect on frequency of ER Ca^2+ oscillations (CaSR (wildtype); R-CatchER): increased the frequency
Hill coefficient (cooperativity) (CaSR E297K): 3.08±0.40
Molecule: O=C(O)[C@@H]1Cc2c([nH]c3ccccc23)CN1 [TNCA, L-1,2,3,4-tetrahydronorharman-3-carboxylic acid]

Ca^2+ release from the ER, area under the curve (AUC) (CaSR (wildtype); 5 mM L-Phe alone, R-CatchER): 19.54±1.08
effect on frequency of ER Ca^2+ oscillations (CaSR (wildtype); R-CatchER): increased the frequency
EC50 (CaSR (wildtype); in the presence of L-Phe, read out with R-CatchER, read-out: EC50 of ER Ca^2+ mobilization by extracellular Ca^2+): 2700 ± 100 µM
Molecule: N[C@@H](Cc1ccccc1)C(=O)O [L-Phe]

Fmax/Fmin [1]: 1.13 ± 0.01
B1: MCD1: mCherry A145E/S147E/N196D/K198D/R216E, best mCherry-based variant, SEQ ID NO: 32 (protein)
chain: EEDNMAIIKEFMRFKVHMEGSVNGHEFEIEGEGEGRPYEGTQTAKLKVTKGGPLPFAWDILSPQFMYGSKAYVKHPADIPDYLKLSFPEGFKWERVMNFEDGGVVTVTQDSSLQDGEFIYKVKLRGTNFPSDGPVMQKKTMGWEESEERMYPEDGALKGEIKQRLKLKDGGHYDAEVKTTYKAKKPVQLPGAYNVDIDLDITSHNEDYTIVEQYEEAEGRHSTGGMDELYK
apparent pKa ([2]; 0 mM Ca^2+): 4.31±0.01
apparent pKa ([2]; 10 mM Ca^2+): 4.30±0.01
Ca^2+ association rate kon [3]: ≥ 3e+07 M⁻¹ s⁻¹
